Results: US10689354B2, “Aminoazole derivative” (Teijin Pharma Limited, priority 2015, dated 2020)

Molecular target: T1, androgen receptor (AR-LBD) (Rattus norvegicus, UniProt P15207)
T1 construct: 5 μL of 2×AR-LBD/Fluoromone AL Red Complex contained in the kit; purchased Invitrogen
T1 sequence (P15207 651-882 limits assumed): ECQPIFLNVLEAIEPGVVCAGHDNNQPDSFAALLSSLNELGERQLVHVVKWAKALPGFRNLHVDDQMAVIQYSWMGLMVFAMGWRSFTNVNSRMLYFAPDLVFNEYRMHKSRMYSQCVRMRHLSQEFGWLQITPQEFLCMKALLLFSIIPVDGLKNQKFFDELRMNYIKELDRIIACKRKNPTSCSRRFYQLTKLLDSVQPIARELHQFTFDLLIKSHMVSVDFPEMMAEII
Assay: Evaluation of androgen receptor affinity (PolarScreen Androgen Receptor Competitor Assay Kit, Red; fluorescence polarization)
Settings: 22° C. for 5 hours, relative to binding rate of 1 μM DHT, read-out: AR affinity (pEC50) (converted)
Protocol: Evaluation of an Androgen Receptor Affinity
To examine the interaction of a compound with an androgen receptor, evaluation was carried out in accordance with the following procedure using PolarScreen™ Androgen Receptor Competitor Assay Kit, Red (Invitrogen). To 2 wells each of a 384 well black plate was added 5 μL of the compound solution. To each well was added 5 μL of 2×AR-LBD/Fluoromone AL Red Complex contained in the kit and the samples were reacted at 22° C. for 5 hours. After 5 hours of the reaction, fluorescence polarization was measured and the affinity was evaluated. The affinity of the compound was determined by comparing to the binding rate of 1 μM of dihydrotestosterone (DHT), and quantified the logarithm value (pEC50) of reciprocal value of the effective concentration of the compound which is equal to 50% of the binding rate by applying a 4 parameter goodness-of-fit calculation.

| SMILES | EC50 [nM] |
| --- | --- |
| CO[C@@H]1CCC[C@H](CN(c2ccc(C#N)cc2)c2nc(C(=O)NS(C)(=O)=O)c(C)s2)C1 (racemic) [Compound 349, 2-[4-cyano-N-[[cis-3-methoxycyclohexyl]methyl]anilino]-5-methyl-N-methylsulfonyl-thiazole-4-carboxamide] | 501 |
| Cc1sc(N(Cc2ccccc2)Cc2cccnc2)nc1C(=O)NS(C)(=O)=O [Example 293, 2-[benzyl(3-pyridylmethyl)amino]-5-methyl-N-methylsulfonyl-thiazole-4-carboxamide] | > 2000 |
| Cc1ncc(CN(c2ccc(C#N)cc2)c2nc(C(=O)NS(C)(=O)=O)c(C)s2)s1 [Compound 435, 2-[4-cyano-N-[(2-methylthiazol-5-yl)methyl]anilino]-5-methyl-N-methylsulfonyl-thiazole-4-carboxamide] | 631 |
| Cc1sc(N(C[Si](C)(C)c2ccccc2)c2ccc(C#N)cc2)nc1C(=O)NS(C)(=O)=O [Compound 477, 2-[4-cyano-N-[[dimethyl(phenyl)silyl]methyl]anilino]-5-methyl-N-methylsulfonyl-thiazole-4-carboxamide] | > 2000 |
| Cc1sc(N(CCC(F)(F)F)Cc2ccccc2)nc1C(=O)NS(C)(=O)=O [Compound 711, 2-[benzyl(3,3,3-trifluoropropyl)amino]-5-methyl-N-methylsulfonyl-thiazole-4-carboxamide] | > 2000 |
| COCCN(c1ccc(C#N)cc1)c1nc(C(=O)NS(C)(=O)=O)c(C)s1 [Compound 357, 2-[4-cyano-N-(2-methoxyethyl)anilino]-5-methyl-N-methylsulfonyl-thiazole-4-carboxamide] | > 2000 |
| Cc1sc(N(Cc2ccc3nc[nH]c3c2)c2ccc(C#N)cc2)nc1C(=O)NS(C)(=O)=O [Compound 389, 2-[N-(3H-benzimidazol-5-ylmethyl)-4-cyano-anilino]-5-methyl-N-methylsulfonyl-thiazole-4-carboxamide] | 1580 |
| Cc1sc(N(Cc2ccccc2C#N)c2ccc(C#N)cc2)nc1C(=O)NS(C)(=O)=O [Compound 8, 2-[4-cyano-N-[(2-cyanophenyl)methyl]anilino]-5-methyl-N-methylsulfonyl-thiazole-4-carboxamide] | > 2000 |
| Cc1sc(N(CC(=O)Nc2ccccc2)c2ccc(C#N)cc2)nc1C(=O)NS(C)(=O)=O [Compound 425, 2-(N-(2-anilino-2-oxo-ethyl)-4-cyano-anilino)-5-methyl-N-methylsulfonyl-thiazole-4-carboxamide] | 1260 |
| Cc1sc(N(C[C@H]2CC[C@@H](O)CC2)c2ccc(C#N)cc2)nc1C(=O)NS(C)(=O)=O [Compound 353, 2-[4-cyano-N-[(cis-4-hydroxycyclohexyl)methyl]anilino]-5-methyl-N-methylsulfonyl-thiazole-4-carboxamide] | > 2000 |
| Cc1sc(N(c2ccc(C#N)cc2F)[C@@H](CO)c2ccccc2)nc1C(=O)NS(C)(=O)=O [Compound 667, 2-(4-cyano-2-fluoro-N-[(1R)-2-hydroxy-1-phenyl-ethyl]anilino)-5-methyl-N-methylsulfonyl-thiazole-4-carboxamide] | > 2000 |
| Cc1sc(N(Cc2ccccc2)CC2CCCCC2)nc1C(=O)NS(C)(=O)=O [Compound 668, 2-[benzyl(cyclohexylmethyl)amino]-5-methyl-N-methylsulfonyl-thiazole-4-carboxamide] | > 2000 |
| Cc1sc(N(Cc2ccccc2)c2cccc(-n3cncn3)c2)nc1C(=O)NS(C)(=O)=O [Compound 71, 2-[N-benzyl-3-(1,2,4-triazol-1-yl)anilino]-5-methyl-N-methylsulfonyl-thiazole-4-carboxamide] | > 2000 |
| Cc1sc(N(CCc2cccc3ccccc23)Cc2ccccc2)nc1C(=O)NS(C)(=O)=O [Example 314, 2-[benzyl-[2-(1-naphthyl)ethyl]amino]-5-methyl-N-methylsulfonyl-thiazole-4-carboxamide] | > 2000 |
| Cc1sc(N(Cc2ccc(OC(F)(F)F)cc2)c2ccc(C#N)cc2)nc1C(=O)NS(=O)(=O)CCCN1CCOCC1 [Compound 541, 2-[4-cyano-N-[[4-(trifluoromethoxy)phenyl]methyl]anilino]-5-methyl-N-(3-morpholinopropylsulfonyl)thiazole-4-carboxamide] | > 2000 |
| Cc1sc(N(CCc2ccc(C(=O)O)cc2)Cc2ccccc2)nc1C(=O)NS(C)(=O)=O [Compound 328, 4-[2-[benzyl-[5-methyl-4-(methylsulfonylcarbamoyl)thiazol-2-yl]amino]ethyl]benzoic acid] | > 2000 |
| Cc1sc(N(Cc2ccccc2)c2ccncc2)nc1C(=O)NS(C)(=O)=O [Compound 422, 2-[benzyl(4-pyridyl)amino]-5-methyl-N-methylsulfonyl-thiazole-4-carboxamide] | 1260 |

| SMILES | EC50 [nM] |
| --- | --- |
| Cc1sc(N(CC2CCCC2O)c2ccc(C#N)cc2)nc1C(=O)NS(C)(=O)=O (stereo not drawn) [Compound 405, 2-[4-cyano-N-[(2-hydroxycyclopentyl)methyl]anilino]-5-methyl-N-methylsulfonyl-thiazole-4-carboxamide] | > 2000 |
| Cc1sc(N(Cc2ccccc2)c2ccc(OCCO)cc2)nc1C(=O)NS(C)(=O)=O [Example 211, 2-[N-benzyl-4-(2-hydroxyethoxy)anilino]-5-methyl-N-methylsulfonyl-thiazole-4-carboxamide] | > 2000 |
| Cc1sc(N(C[C@H]2CC[C@H](O)CC2)c2ccc(C#N)cc2)nc1C(=O)NS(C)(=O)=O [Compound 354, 2-[4-cyano-N-[(trans-4-hydroxycyclohexyl)methyl]anilino]-5-methyl-N-methylsulfonyl-thiazole-4-carboxamide] | > 2000 |
| CCC(c1ccccc1)N(c1ccc(C#N)cc1)c1nc(C(=O)NS(C)(=O)=O)c(C)s1 (stereo not drawn) [Compound 84, 2-[4-cyano-N-(1-phenylpropyl)anilino]-5-methyl-N-methylsulfonyl-thiazole-4-carboxamide] | > 2000 |
| Cc1sc(N(CCCCO)c2ccc(C#N)cc2)nc1C(=O)NS(C)(=O)=O [Compound 358, 2-[4-cyano-N-(4-hydroxybutyl)anilino]-5-methyl-N-methylsulfonyl-thiazole-4-carboxamide] | > 2000 |
| Cc1sc(N(c2ccc(C#N)cc2F)[C@@H](CO)Cc2ccccc2)nc1C(=O)NS(C)(=O)=O [Example 287, 2-(N-[(1R)-1-benzyl-2-hydroxy-ethyl]-4-cyano-2-fluoro-anilino)-5-methyl-N-methylsulfonyl-thiazole-4-carboxamide] | > 2000 |
| Cc1sc(N(CCc2cccc(OC(F)(F)F)c2)Cc2ccccc2)nc1C(=O)NS(C)(=O)=O [Compound 332, 2-[benzyl-[2-[3-(trifluoromethoxy)phenyl]ethyl]amino]-5-methyl-N-methylsulfonyl-thiazole-4-carboxamide] | 398 |
| Cc1sc(N(Cc2ccccc2)c2cccc(Cl)c2)nc1C(=O)NS(C)(=O)=O [Compound 32, 2-(N-benzyl-3-chloro-anilino)-5-methyl-N-methylsulfonyl-thiazole-4-carboxamide] | > 2000 |
| Cc1sc(N(CCC2CCN(C(=O)OC(C)(C)C)CC2)Cc2ccccc2)nc1C(=O)NS(C)(=O)=O [Example 319, tert-butyl 4-[2-[benzyl-[5-methyl-4-(methylsulfonylcarbamoyl)thiazol-2-yl]amino]ethyl]piperidine-1-carboxylate] | > 2000 |
| Cc1sc(N(CCc2ccc(C(N)=O)cc2)Cc2ccccc2)nc1C(=O)NS(C)(=O)=O [Compound 737, 2-[benzyl-[2-(4-carbamoylphenyl)ethyl]amino]-5-methyl-N-methylsulfonyl-thiazole-4-carboxamide] | > 2000 |
| Cc1sc(N(Cc2ccccc2)c2cccc(F)c2)nc1C(=O)NS(C)(=O)=O [Compound 29, 2-(N-benzyl-3-fluoro-anilino)-5-methyl-N-methylsulfonyl-thiazole-4-carboxamide] | > 2000 |
| Cc1sc(N(CCc2cccc(N(C)C)c2)c2ccc(C#N)cc2)nc1C(=O)NS(C)(=O)=O [Compound 475, 2-[4-cyano-N-[2-[3-(dimethylamino)phenyl]ethyl]anilino]-5-methyl-N-methylsulfonyl-thiazole-4-carboxamide] | 794 |
| Cc1sc(N(Cc2ccccc2)c2ccc(C#N)cc2)nc1C(=O)NS(=O)(=O)CCN1CCCCC1 [Compound 430, 2-(N-benzyl-4-cyano-anilino)-5-methyl-N-[2-(1-piperidyl)ethylsulfonyl]thiazole-4-carboxamide] | > 2000 |
| Cc1sc(N(Cc2ncccc2OCc2ccccc2)c2ccc(C#N)cc2)nc1C(=O)NS(C)(=O)=O [Compound 490, 2-[N-[(3-benzyloxy-2-pyridyl)methyl]-4-cyano-anilino]-5-methyl-N-methylsulfonyl-thiazole-4-carboxamide] | > 2000 |
| Cc1sc(N(Cc2ccccc2)c2ccc(F)cc2)nc1C(=O)NS(C)(=O)=O [Compound 28, 2-(N-benzyl-4-fluoro-anilino)-5-methyl-N-methylsulfonyl-thiazole-4-carboxamide] | 1000 |
| Cc1nc(CCN(c2ccc(C#N)cc2)c2nc(C(=O)NS(C)(=O)=O)c(C)s2)cs1 [Compound 135, 2-[4-cyano-N-[2-(2-methylthiazol-4-yl)ethyl]anilino]-5-methyl-N-methylsulfonyl-thiazole-4-carboxamide] | > 2000 |
